Patent publication US11684607B2, “Secnidazole for use in the treatment of bacterial vaginosis” (priority 2014, dated 2023)

Columns and labels:
[1] = Safety evaluation of SYM-1219 alone or in combination with EE2/NET; format: in vivo, human; details: 2 g
Protocol: Methods: Fifty-four (54) healthy female subjects, ages 18-65, received EE2/NET alone and in combination, where SYM-1219+EE2/NET were co-administered on Day 1 (Group B1; N=27) or SYM-1219 on Day 1 and EE2/NET on Day 2 (Group B2; N=27). Serial blood samples were drawn to measure plasma concentrations of EE2/NET. […] Safety was evaluated by recording of adverse events, vital signs, ECGs and standard laboratory tests.

[2] = system: bacterial vaginosis; assay: Phase 2 double-blind placebo-controlled study, clinical outcome responder (clinical cure) in women with bacterial vaginosis; format: in vivo, human
From the text: (§1) The study was designed in accordance with FDA guidance for pivotal bacterial vaginosis trials with a primary end point clinical cure in the Modified Intent-to-Treat (mITT) population at day 21 to 30 versus placebo (two-sided test at alpha=0.05). Subjects were recruited to the study they presented with the following Amsel criteria: presence of typical discharge. a positive KOH Whiff test vaginal fluid pH greater than or equal to 4.7, and the presence of “clue cells” (epithelial cells with adhering bacteria) on microscopic examination.

[3] = parameters: species or system human; details: in vivo
From the text: as §1

Cc1ncc([N+](=O)[O-])n1CC(C)O (stereo not shown) [SYM-1219, 1-(2-hydroxypropyl)-2-methyl-5-nitromidazole]
changes in vital signs, ECG or laboratory parameters [1]: no significant changes
safety and tolerability [1]: safe and well-tolerated
effectiveness in treating bacterial vaginosis ([2]; 2 gram single dose, subjects with 3 or fewer as well as 4 or more episodes in the past 12 months): effective
effectiveness for bacterial vaginosis compared with placebo ([2]; 2 gram single-dose): effective
clinical cure rate ([2]; single 2 g oral dose, 21-30 days after treatment): 67.7%
Acute sinusitis: Events ([3]; female, human): 0 n
Acute sinusitis: Subjects ([3]; female, human): 0 n
Adverse Event: Abdominal pain ([3]; female, human): 0%
Adverse Event: Diarrhea ([3]; female, human): 0%
Adverse Event: Fungal Infection ([3]; female, human): 3%
Adverse Event: Headache ([3]; female, human): 1%
Adverse Event: Metallic/Unusual Taste ([3]; female, human): 1%
Adverse Event: Nausea ([3]; female, human): 1%
Adverse Event: Vulva/Vaginal Irritation ([3]; female, human): 1%
Alanine aminotransferase increased: Events ([3]; female, human): 1 n
Any Adverse Event, Overall: Events ([3]; female, human): 19 n
Aspartate aminotransferase increased: Events ([3]; female, human): 1 n
Candida infection: Events ([3]; female, human): 0 n
Candida infection: Subjects ([3]; female, human): 0 n
Chlamydial infection: Events ([3]; female, human): 1 n
Chromaturia: Events ([3]; female, human): 1 n
Dizziness: Events ([3]; female, human): 1 n
Dysgeusia: Events ([3]; female, human): 1 n
Fungal infection: Events ([3]; female, human): 0 n
Fungal infection: Subjects ([3]; female, human): 0 n
Gastrointestinal disorders, Overall: Events ([3]; female, human): 1 n
Gonorrhoea: Events ([3]; female, human): 1 n
Headache: Events ([3]; female, human): 1 n
Infections and infestations, Overall: Events ([3]; female, human): 7 n
Injury, poisoning and procedural complications, Overall: Events ([3]; female, human): 1 n
Investigations, Overall: Events ([3]; female, human): 2 n
Nausea: Events ([3]; female, human): 1 n
Nervous system disorders, Overall: Events ([3]; female, human): 3 n
Oropharyngeal pain: Events ([3]; female, human): 1 n
Renal and urinary disorders, Overall: Events ([3]; female, human): 1 n
Reproductive system and breast disorders, Overall: Events ([3]; female, human): 3 n
Respiratory, thoracic and mediastinal disorders, Overall: Events ([3]; female, human): 1 n
Surgical and medical procedures, Overall: Events ([3]; female, human): 0 n
Surgical and medical procedures, Overall: Subjects ([3]; female, human): 0 n
Thermal burn: Events ([3]; female, human): 1 n
Tooth abscess: Events ([3]; female, human): 1 n
Tooth extraction: Events ([3]; female, human): 0 n
Tooth extraction: Subjects ([3]; female, human): 0 n
Tooth infection: Events ([3]; female, human): 1 n
Upper respiratory tract infection: Events ([3]; female, human): 0 n
Upper respiratory tract infection: Subjects ([3]; female, human): 0 n
Urinary tract infection: Events ([3]; female, human): 1 n
Vaginal discharge: Events ([3]; female, human): 1 n
Vaginal odor: Events ([3]; female, human): 1 n
Vulvovaginal mycotic infection: Events ([3]; female, human): 2 n
Vulvovaginal pruritus: Events ([3]; female, human): 1 n
tolerability [3]: surprisingly well tolerated
